Data from patent US6365759B1, “Intermediate compounds for preparing macrocylcic analogs” (Eisai Co., Ltd., priority 1998, dated 2002).
pIC50: −log10 of the molar value. Read-outs that look alike come from different tables or passages of the source.

Experiments:
[1] = system: DLD-1 human colon cancer cells; assay: in vitro cell growth inhibition assay using DLD-1 cells; assay type: cell-based
[2] = system: U937 human histiocytic lymphoma cells; assay: U937 Mitotic Block Reversibility Assay; assay type: cell-based; details: for Drug concentration required for complete mitotic block, 0 hour (before washout) / Drug concentration required for complete mitotic block, 10 hour (after washout): U937 cells; for reversibility of induced mitotic blocks: blocks sustained 10 hour after drug washout
[3] = Homo sapiens, DLD-1, read-out: DLD-1 mean IC50

SMILES	pIC50 [1, 3]	Complete Mitotic Block 0 hour [2] [nM]	Complete Mitotic Block 10 hour [2] [nM]	Reversibility Ratio [2]	pIC50 ([1]; read-out: DLD-1 mean IC50)	other results
C=C1CC2CCC34CC5OC6C(OC7CCC(CC(=O)CC8C(CC9OC(CCC1O2)CC(C)C9=C)OC(CC(=O)CO)C8OC)OC7C6O3)C5O4 (centres unmarked) [Compound B1934]	8.98	3	30	10.0	–	–
C=C1CC2CCC34CC5OC6C(OC7CCC(CC(=O)CC8C(CC9OC(CCC1O2)CC(C)C9=C)OC(CC(=O)CNC(=O)C(=O)c1ccccc1)C8OC)OC7C6O3)C5O4 (centres unmarked) [Compound B1988]	8.57	–	–	–	–	–
C=C1CC2CCC34CC5OC6C(OC7CCC(CC(=O)CC8C(CC9OC(CCC1O2)CC(C)C9=C)OC(CC(O)CNCc1ccccc1)C8OC)OC7C6O3)C5O4 (centres unmarked) [Compound B2491]	–	2	10	6.7	9.04	–
C=C1CC2CCC34CC5OC6C(OC7CCC(CC(=O)CC8C(CC9OC(CCC1O2)CC(C)C9=C)OC(CC(O)CNCCO)C8OC)OC7C6O3)C5O4 (centres unmarked) [Compound B2417]	–	10	10	1.0	7.90	–
C=C1C[C@@H]2CC[C@@]34C[C@H]5O[C@H]6[C@@H](O3)[C@H]3O[C@H](CC[C@@H]3O[C@@H]6[C@H]5O4)CC(=O)C[C@@H]3[C@@H](OC)[C@@H](C[C@H](O)CNC)O[C@H]3C[C@H]3O[C@@H](CC[C@@H]1O2)C[C@@H](C)C3=C [Compound B2336]	–	10	10	1.0	8.48	–
C=C1CC2CCC34CC5OC6C(OC7CCC(CC(=O)CC8C(CC9OC(CCC1O2)CC(C)C9=C)OC(CC(O)CNCCc1ccccc1)C8OC)OC7C6O3)C5O4 (centres unmarked) [ER803846]	–	1	10	10.0	8.94	–
C=C1CC2CCC34CC5OC6C(OC7CCC(CC(=O)CC8C(CC9OC(CCC1O2)CC(C)C9=C)OC(CC(O)CN1CC[C@@H](O)C1)C8OC)OC7C6O3)C5O4 (some centres unmarked) [ER803836]	–	3	10	3.3	8.71	–
C=C1CC2CCC34CC5OC6C(OC7CCC(CC(=O)CC8C(CC9OC(CCC1O2)CC(C)C9=C)OC(CC(O)CN=[N+]=[N-])C8OC)OC7C6O3)C5O4 (centres unmarked) [Compound B1922]	9.28	3	30	10.0	–	–
C=C1CC2CCC34CC5OC6C(OC7CCC(CC(=O)CC8C(CC9OC(CCC1O2)CC(C)C9=C)OC(CC(O)CNC(=O)C(=O)c1cc(OC)c(OC)c(OC)c1)C8OC)OC7C6O3)C5O4 (centres unmarked) [Compound B2003]	–	–	–	–	8.92	–
C=C1CC2CCC34CC5OC6C(OC7CCC(CC(=O)CC8C(CC9OC(CCC1O2)CC(C)C9=C)OC(CC(O)CNC(=O)Cc1cccnc1)C8OC)OC7C6O3)C5O4 (centres unmarked) [Compound B1940]	–	–	–	–	8.27	–
C=C1CC2CCC34CC5OC6C(OC7CCC(CC(=O)CC8C(CC9OC(CCC1O2)CC(C)C9=C)OC(CC(O)CN1CCC[C@@H]1CO)C8OC)OC7C6O3)C5O4 (some centres unmarked) [ER803852]	–	3	10	3.3	8.52	–
C=C1CC2CCC34CC5OC6C(OC7CCC(CC(=O)CC8C(CC9OC(CCC1O2)CC(C)C9=C)OC(CC(O)CO)C8OC)OC7C6O3)C5O4 (centres unmarked) [Compound B1794]	–	–	–	–	–	pIC50 ([1]; in vitro cell growth inhibition, DLD-1 human colon cancer cells, read-out: DLD-1 mean IC50): 7.91
C=C1CC2CCC34CC5OC6C(OC7CCC(CC(=O)CC8C(CC9OC(CCC1O2)CC(C)C9=C)OC(CC(O)CNC(=O)C(=O)c1ccccc1)C8OC)OC7C6O3)C5O4 (centres unmarked) [Compound B1930]	–	–	–	–	9.06	–
C=C1CC2CCC34CC5OC6C(OC7CCC(CC(=O)CC8C(CC9OC(CCC1O2)CC(C)C9=C)OC(CC(O)CNC(=O)c1cc(OC)c(OC)c(OC)c1)C8OC)OC7C6O3)C5O4 (centres unmarked) [Compound B2004]	–	–	–	–	9.20	–
C=C1C[C@@H]2CCC34CC5OC6C(OC7CCC(CC(=O)CC8C(CC9OC(CCC1O2)CC(C)C9=C)OC(CC(O)COS(C)(=O)=O)C8OC)OC7C6O3)C5O4 (some centres unmarked) [Compound B2294]	9.10	–	–	–	–	–
C=C1CC2CCC34CC5OC6C(OC7CCC(CC(=O)CC8C(CC9OC(CCC1O2)CC(C)C9=C)OC(CC(O)CNC(=O)Cc1ccccc1)C8OC)OC7C6O3)C5O4 (centres unmarked) [Compound B1973]	–	–	–	–	8.94	–
C=C1CC2CCC34CC5OC6C(OC7CCC(CC(=O)CC8C(CC9OC(CCC1O2)CC(C)C9=C)OC(CC(O)COC(=O)Nc1ccc(OC)cc1)C8OC)OC7C6O3)C5O4 (centres unmarked) [Compound B1992]	–	–	–	–	9.07	–

SMILES	pIC50 [1, 3]	Complete Mitotic Block 0 hour [2] [nM]	Complete Mitotic Block 10 hour [2] [nM]	Reversibility Ratio [2]	pIC50 ([1]; read-out: DLD-1 mean IC50)	other results
C=C1CC2CCC34CC5OC6C(OC7CCC(CC(=O)CC8C(CC9OC(CCC1O2)CC(C)C9=C)OC(CC(O)CNC(C)C)C8OC)OC7C6O3)C5O4 (centres unmarked) [Compound B2330]	–	7	7	1.0	8.36	–
C=C1CC2CCC34CC5OC6C(OC7CCC(CC(=O)CC8C(CC9OC(CCC1O2)CC(C)C9=C)OC(CC(O)CNCc1ccc(Cl)cc1)C8OC)OC7C6O3)C5O4 (centres unmarked) [ER803884]	–	1	10	10.0	9.23	–
C=C1CC2CCC34CC5OC6C(OC7CCC(CC(=O)CC8C(CC9OC(CCC1O2)CC(C)C9=C)OC(CC(O)CN1CCOCC1)C8OC)OC7C6O3)C5O4 (centres unmarked) [ER803868]	–	3	10	3.3	9.37	–
C=C1CC2CCC34CC5OC6C(OC7CCC(CC(=O)CC8C(CC9OC(CCC1O2)CC(C)C9=C)OC(CC(O)CN(C)C)C8OC)OC7C6O3)C5O4 (centres unmarked) [Compound B2320]	–	1	10	10.0	8.92	–
C=C1CC2CCC34CC5OC6C(OC7CCC(CC(=O)CC8C(CC9OC(CCC1O2)CC(C)C9=C)OC(CC(O)CC(O)CO)C8OC)OC7C6O3)C5O4 (centres unmarked) [Compound B2086]	7.95	–	–	–	–	–
C=C1CC2CCC34CC5OC6C(OC7CCC(CC(=O)CC8C(CC9OC(CCC1O2)CC(C)C9=C)OC(CC(O)CNC(=O)C(=O)c1c[nH]c2ccccc12)C8OC)OC7C6O3)C5O4 (centres unmarked) [Compound B1987]	–	–	–	–	8.74	–
C=C1CC2CCC34CC5OC6C(OC7CCC(CC(=O)CC8C(CC9OC(CCC1O2)CC(C)C9=C)OC(CC(O)CCO)C8OC)OC7C6O3)C5O4 (centres unmarked) [Compound B2091]	8.87	3	30	10.0	–	–
C=C1CC2CCC34CC5OC6C(OC7CCC(CC(=O)CC8C(CC9OC(CCC1O2)CC(C)C9=C)OC(CC(O)COC(=O)Nc1ccccc1)C8OC)OC7C6O3)C5O4 (centres unmarked) [Compound B1984]	–	–	–	–	9.00	–
C=C1C[C@@H]2CCC34CC5OC6C(OC7CCC(CC(=O)CC8C(CC9OC(CCC1O2)CC(C)C9=C)OC(CCO)C8OC)OC7C6O3)C5O4 (some centres unmarked) [Compound B2037]	9.18	–	–	–	–	–
C=C1CC2CCC34CC5OC6C(OC7CCC(CC(=O)CC8C(CC9OC(CCC1O2)CC(C)C9=C)OC(CC(O)COCc1ccc(F)cc1)C8OC)OC7C6O3)C5O4 (centres unmarked) [Compound B2014]	9.06	–	–	–	–	–
CC[C@]1(O)C[C@H]2CN(CCc3c([nH]c4ccccc34)[C@@](C(=O)OC)(c3cc4c(cc3OC)N(C=O)[C@H]3[C@@](O)(C(=O)OC)[C@H](OC(C)=O)[C@]5(CC)C=CCN6CC[C@]43[C@@H]65)C2)C1 [Vincristine, reference compound]	–	–	–	–	–	Reversibility ratio ([2]; Table 2): 1; Drug concentration required for complete mitotic block, 0 hour (before washout) ([2]; Table 2): 10 nM; Drug concentration required for complete mitotic block, 10 hour (after washout) ([2]; Table 2): 10 nM; Interpretation ([2]; Table 2, reversibility of mitotic block): Irreversible; reversibility of induced mitotic blocks [2]: irreversible
C=C1CC2CCC34CC5OC6C(OC7CCC(CC(=O)CC8C(CC9OC(CCC1O2)CC(C)C9=C)OC(C(O)CO)C8C)OC7C6O3)C5O4 (centres unmarked) [Compound B2090]	9.28	–	–	–	–	–
CC[C@]1(O)C[C@@H]2CN(CCc3c([nH]c4ccccc34)[C@@](C(=O)OC)(c3cc4c(cc3OC)N(C)[C@H]3[C@@](O)(C(=O)OC)[C@H](OC(C)=O)[C@]5(CC)C=CCN6CC[C@]43[C@@H]65)C2)C1 [Vinblastine, reference compound]	–	–	–	–	–	Reversibility ratio ([2]; Table 2): 60; Drug concentration required for complete mitotic block, 0 hour (before washout) ([2]; Table 2): 10 nM; Drug concentration required for complete mitotic block, 10 hour (after washout) ([2]; Table 2): 600 nM; reversibility of induced mitotic blocks [2]: highly reversible
C=C1CC2CCC34CC5OC6C(OC7CCC(CC(=O)CC8C(CC9OC(CCC1O2)CC(C)C9=C)OC(CC(O)COC(=O)Nc1ccc(Cl)cc1)C8OC)OC7C6O3)C5O4 (centres unmarked) [Compound B1990]	–	–	–	–	8.89	–
C=CC(F)(F)C(O)CC1OC2CC3OC(CCC4OC(CCC56CC7OC8C(OC9CCC(CC(=O)CC2C1OC)OC9C8O5)C7O6)CC4=C)CC(C)C3=C (centres unmarked) [Compound B2035]	9.12	–	–	–	–	–
C=C1CC2CCC34CC5OC6C(OC7CCC(CC(=O)CC8C(CC9OC(CCC1O2)CC(C)C9=C)OC(CC(O)CNC(=O)c1ccc(Cl)cc1)C8OC)OC7C6O3)C5O4 (centres unmarked) [Compound B1991]	–	–	–	–	9.16	–
C=C1CC2CCC34CC5OC6C(OC7CCC(CC(=O)CC8C(CC9OC(CCC1O2)CC(C)C9=C)OC(CC(CO)OCc1ccc(F)cc1)C8OC)OC7C6O3)C5O4 (centres unmarked) [Compound B2015]	8.56	–	–	–	–	–
